Assay results reported in patent publication US6680070B1, “Particulate blends and compacted products formed therefrom, and the preparation thereof” (Albemarle Corporation, priority 2000, dated 2004).
Values joined by “and” are separate entries in the source; they are usually repeats but may differ in a detail not shown here. Equal values may be shown once. Values belong to the compound of their own block, whether it stands above or below them.

Key:
[1] = Crush strength test (Sintech 1/S compression apparatus); format: physicochemical; conditions: Table 8, no binder; for Crush Strength (force at breaking point), single tablet / Crush Strength per inch thickness, single tablet: 5 g, 5000 psi, aged 6 days at room temperature
Excerpt: In each test, tablets made from 5 g of blended material were used. […] The apparatus includes a horizontal circular-shaped load cell interfaced with a computer, a digital micrometer also interfaced with the computer, and a vertical screw-driven piston that is disposed above the load cell and adapted to apply a downward force perpendicular to the load cell. The procedure for measuring crush strength involves measuring the thickness of the tablet with the micrometer to provide a digitized input to the computer. Next the tablet is placed on its edge on the load cell with the piston in contact with the upper edge of the tablet. Then the apparatus is activated whereby the piston commences applying a progressively increasing downward diametral force to the tablet. At the same time, the load cell continuously measures the downward force being applied to the tablet, and the input of such measurements is transmitted to the computer. When the force being applied reaches the point where the amount of force suddenly decreases to 10% of the immediately preceding force, the tablet has reached the breaking point, and the application of the force is immediately terminated by the software program. From the inputs to the computer, two values are provided, namely the pounds of force at the breaking point of the tablet, and the pounds of force per inch thickness of the tablet at the breaking point. Thus the greater the force applied, the greater the crush strength. […] When the compacted article is in a form other than a cylindrical tablet (e.g., a granule, caplet, briquette, or puck), the article being tested is to be positioned on the load cell and under the screw-driven piston with the longest axis of the article in the vertical position. In addition, the micrometer is used to measure the thickest portion of the article when the article is positioned on the load cell and under the screw-driven piston with the longest axis of the article in the vertical position.

[2] = Large tablet compaction, 2.5-inch punch and die, Carver Press; conditions: 63.8 g, 2.5-inch die, 5000 psi, no dwell time, silicone oil lubricant
[3] = Storage stability at 50° C., wt % active bromine by iodometric titration; format: physicochemical
Excerpt: Three more samples of the blend (5 g each) were compacted in the same manner, and each time a single tablet was extracted from the die after the pressure had been released. The tablets were manually broken into two equally-sized pieces. One half of each tablet was crushed into a powder with a mortar and pestle, and the powder was titrated using the standard, well-known, iodometric method with a starch indicator to determine the wt % of active bromine. The other half of each tablet was placed in a sealed glass vial and placed in an oven at 50° C. After 30 days, the samples were removed from the oven, ground up, and titrated to determine its wt % of active bromine using the same analytical method.

[4] = Compaction test: tablet pressed in die, visual observation on extraction; format: physicochemical; conditions: 0.71 inch die, 5000 psi, no dwell time, die dusted with MICROPRO 400; listed as control sample
[5] = Granulation through Chilsonator breaker and screens; format: physicochemical; conditions: Chilsonator breaker, screens U.S. mesh 12 to 18
Procedure: The mixing time was 60 minutes in each case. […] The mixing time was 240 minutes. Each blend was passed through a Chilsonator® breaker (The Fitzpatrick Company, Elmhurst, Ill.) and a set of screens to produce compacted granules of U.S. mesh size 12 to 18. […] Instead, the unblended material exiting the Chilsonator® was mostly loose powder.

[6] = Naproxen caplet compaction at 25,000 psi; format: physicochemical; conditions: imprinted stainless steel punch and die, 0.12-inch cross-sectional area
Procedure: A blend of commercially available virgin naproxen powder (Albemarle Corporation, Richmond, Va.) and micronized polyethylene wax (MPP-611; Micro Powders, Inc., Tarrytown, N.Y.) was formed. The blend contained 10 wt % of the micronized wax. Two 250 mg samples and three 318 mg samples of this blend were compacted in an imprinted stainless steel punch and die set of 0.12-inch cross-sectional area. Upon attaining a pressure of 25,000 psi, the pressure was released. […] The caplets were shiny and free of edge-burrs and surface defects. The imprinted lettering from the top punch was clearly impressed into the caplets.
Instead, as the punches were separated, approximately half of the naproxen had stuck to the top punch and the remainder had stuck to the bottom punch.

Structure (SMILES): CC1(C)C(=O)N(Br)C(=O)N1Br [Set A]
Crush Strength (force at breaking point), single tablet ([1]; listed as A): 20.9 lb. and 25.5 lb. and 19.2 lb. and 22.8 lb. and 23.7 lb. | Crush Strength per inch thickness, single tablet ([1]; listed as A): 57.3 lb./in. and 69.5 lb./in. and 52.5 lb./in. and 62.1 lb./in. and 65.0 lb./in. | Crush Strength (force at breaking point), average of set ([1]; listed as A): 22.4 lb. | Crush Strength per inch thickness, average of set ([1]; listed as A): 61.3 lb./in.

Structure (SMILES): COc1ccc2cc([C@H](C)C(=O)O)ccc2c1 [naproxen]
Caplet formation [6]: No unbroken caplet of naproxen could be produced

Now from value to compound, other results behind:

Observations (large tablet on extraction from die) ([2]; listed as Commercial sample without binder): Tablet delaminates | Wt % Active Bromine, Initial ([3]; half tablet crushed, iodometric titration): 55.3 Wt % | Wt % Active Bromine, After 30 days ([3]; half tablet in sealed glass vial, oven at 50° C., 30 days): 55.2 Wt % | Compaction into granules [5]: did not compact and form granules
Structure (SMILES): CC1(C)C(=O)N(Br)C(=O)N1Br [DBDMH - without wax binder]
Observations (tablet on extraction from die) [4]: not possible to extract a single tablet from the die

Observations (large tablet on extraction from die) [2]: Intact tablet exhibiting
Structure (SMILES): CC1(C)C(=O)N(Br)C(=O)N1Br

Crush Strength (force at breaking point), single tablet ([1]; listed as B): 10.7 lb. and 12.8 lb. and 9.8 lb. | Crush Strength (force at breaking point), average of set ([1]; listed as B): 11.1 lb. | Crush Strength per inch thickness, average of set ([1]; listed as B): 31.5 lb./in.
Structure (SMILES): CC1(C)C(=O)N(Br)C(=O)N1Br [Set B]
Crush Strength per inch thickness, single tablet ([1]; listed as B): 30.4 lb./in. and 36.4 lb./in. and 27.8 lb./in.
